Patent US9187768B2, “Alcoholic fermentation yeast and method for producing ethanol using same” (NIPPON STEEL & SUMIKIN ENGINEERING CO., LTD., priority 2010, dated 2015)

System: general yeast
Assay: Ethanol fermentation by a general yeast with limonene added to YPD culture medium
Format: cell-based, Saccharomyces Cerevisiae
Conditions: 0.1% v/v of limonene added
Description: Generally, yeast is present in a sugar solution as fine solid particles and easily adsorbs oily substances. Therefore, the reason for the above-described experimental results may be that the limonene (in an oil form) added in a small amount (0.05% v/v) adsorbed to the yeast, causing fermentation inhibition. To remove limonene, which is a fermentation inhibitor, from a juice residue extract, limonene in a solid form, which accounts for 75% or larger of the total amount of limonene, must be removed, and limonene in a micelle form present as a light liquid (an oily substance) must also be removed. […] Therefore, fermentability tended to be unstable due to the influence of contamination etc. and it was difficult to maintain high fermentability over a long period of time.

SMILES: C=C(C)[C@H]1CC=C(C)CC1 [limonene]
- rate of ethanol production: about 20%
